Test results reported in US12195427B2, “MASP-2 inhibitors and methods of use” (priority 2018, dated 2025).

Target: MASP-2 CCP2-SP (Homo sapiens (Human), UniProt O00187)
Assay: MASP-2 co-crystallization, X-ray crystallography and structure analysis (H-bonds, van der Waals contacts);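 on Ligand-pharmacophore element distance, pharmacophore element C2: distance from averaged pharmacophore element to bound ligand; missing value means element absent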;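 on Ligand-pharmacophore element distance, pharmacophore element C3: distance from averaged pharmacophore element to bound ligand; missing value means element absent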;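 on Ligand-pharmacophore element distance, pharmacophore element C4: distance from averaged pharmacophore element to bound ligand; missing value means element absent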;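 on Ligand-pharmacophore element distance, pharmacophore element C5: distance from averaged pharmacophore element to bound ligand; missing value means element absent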
Set-up: van der Waals contact distance, MASP-2 HIS 483 atom CD2 / van der Waals contact distance, MASP-2 HIS 483 atom NE2 / van der Waals contact distance, SER 654 C to compound atom / van der Waals contact distance, SER 654 O to compound atom / van der Waals contact distance, TRP 655 C to compound atom / van der Waals contact distance, MASP-2 GLY 528 atom CA / van der Waals contact distance TRP 655 atom CZ3 / van der Waals contact distance TRP 655 atom N / van der Waals contact distance TRP 655 atom CE3 / van der Waals contact distance GLY 656 atom C / van der Waals contact distance GLY 656 atom CA / van der Waals contact distance GLY 656 atom O / van der Waals contact distance, MASP-2 TYR 607 atom CD1 / van der Waals contact distance, MASP-2 PRO 606 atom O / d(C3,CA1) / d(CA1,N1)2 / d(H4,O1) / d(H4,O2) / d(O1,O2) / d(CA1,O2) / d(CA6,O1) / d(CA6,O2) / d(CA1,C5) / d(O2,H3) / d(N2,C2) / d(CA5,N2) / d(N2,C4) / d(N2,C6) / d(N2,CA3) / d(N2,O3) / d(O4,H2): unit not given beside the values
Conditions: for Ligand-pharmacophore element distance, pharmacophore element C2 / Ligand-pharmacophore element distance, pharmacophore element C3 / Ligand-pharmacophore element distance, pharmacophore element C4 / Ligand-pharmacophore element distance, pharmacophore element C5 / Ligand-pharmacophore element distance, pharmacophore element C6 / Ligand-pharmacophore element distance, pharmacophore element C7 / Ligand-pharmacophore element distance, pharmacophore element CA1 / Ligand-pharmacophore element distance, pharmacophore element CA2 / Ligand-pharmacophore element distance, pharmacophore element CA3 / Ligand-pharmacophore element distance, pharmacophore element CA4 / Ligand-pharmacophore element distance, pharmacophore element CA5 / Ligand-pharmacophore element distance, pharmacophore element CA6: Table A4-1; for d(CA1,C5) / d(CA1,O1) / d(CA1,O2) / d(CA1,O4) / d(H4,O1) / d(H4,O2) / d(O1,O2) / d(O4,H2): Table A5-1 pharmacophore: distance between elements, S2/S1 region; for d(N2,C2) / d(N2,CA2) / d(O2,H3) / d(O2,N2): Table A5-2 pharmacophore distance, S3/S4 region; for a(C5, CA1, O1) / a(CA1, O1, O2) / a(CA1, O4, H2) / a(O1, CA1, O4) / a(O1, O2, H4): Table A6-1 pharmacophore angle; for a(O1, O2, H3) / a(O1, O2, N2) / a(O2, N2, C2) / a(O2, N2, CA2): Table A6-2 pharmacophore angle; for Pharmacophore torsion angle a(C5, CA1, O1, H4) / Pharmacophore torsion angle a(H4, O1, O2, H3) / Pharmacophore torsion angle a(H4, O1, O2, N2) / Pharmacophore torsion angle a(O1, H4, O2, CA1) / Pharmacophore torsion angle a(O1, O2, N2, C2): Table A7-1; for Pharmacophore torsion angle a(C5, CA1, O1, H4) / Pharmacophore torsion angle a(H4, O1, O2, H3) / Pharmacophore torsion angle a(H4, O1, O2, N2) / Pharmacophore torsion angle a(O1, H4, O2, CA1) / Pharmacophore torsion angle a(O1, O2, N2, C2) / Pharmacophore torsion angle a(O1, O2, N2, CA2): between pharmacophore elements of the bound compound; for Pharmacophore torsion angle a(O1, O2, N2, CA2): Table A7-2
Excerpt: This example illustrates the preparation of recombinant MASP-2 protein, based on UniProt O00187, human mannan-binding lectin serine protease 2. Expression constructs for human MASP-2 CCP2-SP and CCP2-SP-6HIS were generated for recombinant expression in E. coli cells.
Typically, crystallization hits were obtained by screening against […] 96-well crystallization reagent kits (GRAS6, GRAS2, Hampton Research; MORPHEUS, Molecular Dimensions; Wizard 1&2 Cryo, Rigaku Reagents) and crystal growth was inspected by optical microscopy. Crystals were used directly or further optimized for X-ray diffraction. Crystals were captured with cryogenic loops and dipped into liquid nitrogen directly or cryoprotected with a 20% glycerol in crystallization formulation before flash-cooling in liquid nitrogen.
Thereafter crystals are transferred once or twice for soaking within the crystallization solution containing the MASP-2 inhibitor.
Crystals were diffracted with synchrotron X-rays of […] and X-ray diffraction datasets were collected at beamlines SSRL BL9-2, BL14-1, BL12-2 as well as ALS sector 5 using Dectris Pilatus and Eiger detectors. Structures were determined by molecular replacement using portions of the structure 1Q3X as search models and partially refined with Buster 2.10.2 or Refmac 5.8. […] When multiple ligand poses were observed, for instance arising from multiple molecules in the asymmetric unit or refined dual poses within the same molecule, only one pose was selected and analyzed.
LigPlot+ calls these ‘nonbonded contacts’ or ‘hydrophobic contacts’. Despite the name, there are atom pairings that include possible H-bonds. Thus, in some instances, the Table A2 also contains H-bond interactions.

[1] = Table A8-6, nearest protein atom in cell to the left

Chain of MASP-2 CCP2-SP (O00187 445-686): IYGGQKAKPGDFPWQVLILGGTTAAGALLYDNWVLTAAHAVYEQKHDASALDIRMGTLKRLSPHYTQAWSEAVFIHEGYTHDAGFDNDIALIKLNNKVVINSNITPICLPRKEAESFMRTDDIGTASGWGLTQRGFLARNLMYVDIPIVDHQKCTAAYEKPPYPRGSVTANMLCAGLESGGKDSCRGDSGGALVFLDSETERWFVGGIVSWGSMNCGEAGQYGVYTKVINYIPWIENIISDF
Chain of MASP-2 CCP2-SP (O00187 364-432 partner): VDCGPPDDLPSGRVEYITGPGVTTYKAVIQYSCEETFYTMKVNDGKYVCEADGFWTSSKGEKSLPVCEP

C[C@H](NC(=O)[C@H]1C[C@@H](c2ccccc2)CCN1)C(=O)NCc1cc(Cl)ccc1O.Cl [1078_10]
Ligand-pharmacophore element distance, pharmacophore element C2: 0.49 | Ligand-pharmacophore element distance, pharmacophore element C3: 0 | Ligand-pharmacophore element distance, pharmacophore element C4: 0 | Ligand-pharmacophore element distance, pharmacophore element C5: 0.3 | Ligand-pharmacophore element distance, pharmacophore element C6: 0 | Ligand-pharmacophore element distance, pharmacophore element C7: 0 | Ligand-pharmacophore element distance, pharmacophore element CA1: 1.34 | Ligand-pharmacophore element distance, pharmacophore element CA2: 0.49 | Ligand-pharmacophore element distance, pharmacophore element CA3: 0 | Ligand-pharmacophore element distance, pharmacophore element CA4: 0 | Ligand-pharmacophore element distance, pharmacophore element CA5: 0 | Ligand-pharmacophore element distance, pharmacophore element CA6: 0 | d(CA1,C5): 3.12 | d(CA1,O1): 4.35 | d(CA1,O2): 4.37 | d(CA1,O4): 2.76 | d(H4,O1): 3.11 | d(H4,O2): 3.46 | d(O1,O2): 2.72 | d(O4,H2): 0.97 | d(N2,C2): 1.48 | d(N2,CA2): 5.72 | d(O2,H3): 1.97 | d(O2,N2): 2.74 | a(C5, CA1, O1): 160.63 | a(CA1, O1, O2): 108.49 | a(CA1, O4, H2): 127.01 | a(O1, CA1, O4): 71.55 | a(O1, O2, H4): 131.53 | a(O1, O2, H3): 146.00 | a(O1, O2, N2): 152.80 | a(O2, N2, C2): 131.78 | a(O2, N2, CA2): 156.19 | Pharmacophore torsion angle a(C5, CA1, O1, H4): −9.97 | Pharmacophore torsion angle a(H4, O1, O2, H3): −152.67 | Pharmacophore torsion angle a(H4, O1, O2, N2): −164.78 | Pharmacophore torsion angle a(O1, H4, O2, CA1): −84.11 | Pharmacophore torsion angle a(O1, O2, N2, C2): 123.40 | Pharmacophore torsion angle a(O1, O2, N2, CA2): 136.18 | Pharmacophore protein distance to MET_658 (first MET_658 column) (Table A8-6, 6th residue column, nearest protein atom in cell to the left): 3.04 | Pharmacophore protein distance to MET_658 (second MET_658 column) (Table A8-6, 9th residue column, nearest protein atom in cell to the left): 3.81 | Pharmacophore protein distance to GLY_528 [1]: 3.40 | Pharmacophore protein distance to PHE_529 [1]: 3.08 | Pharmacophore protein distance to PRO_608 [1]: 3.66 | Pharmacophore protein distance to SER_611 [1]: 2.78 | Pharmacophore protein distance to TRP_655 (Table A8-6, pharmacophore elements C6, CA3, O3, H1, nearest protein atom in cell to the left): 3.89

C[C@H](NC(=O)[C@H]1C[C@@H](c2ccccc2)CCN1)C(=O)NCc1cc(Cl)ccc1O.Cl [1078_11]
Ligand-pharmacophore element distance, pharmacophore element C2: 0.6 | Ligand-pharmacophore element distance, pharmacophore element C3: 0 | Ligand-pharmacophore element distance, pharmacophore element C4: 0 | Ligand-pharmacophore element distance, pharmacophore element C5: 0.41 | Ligand-pharmacophore element distance, pharmacophore element C6: 0 | Ligand-pharmacophore element distance, pharmacophore element C7: 0 | Ligand-pharmacophore element distance, pharmacophore element CA1: 1.64 | Ligand-pharmacophore element distance, pharmacophore element CA2: 0.64 | Ligand-pharmacophore element distance, pharmacophore element CA3: 0 | Ligand-pharmacophore element distance, pharmacophore element CA4: 0 | Ligand-pharmacophore element distance, pharmacophore element CA5: 0 | Ligand-pharmacophore element distance, pharmacophore element CA6: 0 | d(CA1,C5): 3.12 | d(CA1,O1): 4.69 | d(CA1,O2): 4.58 | d(CA1,O4): 2.75 | d(H4,O1): 2.26 | d(H4,O2): 2.51 | d(O1,O2): 3.42 | d(O4,H2): 0.97 | d(N2,C2): 1.47 | d(N2,CA2): 5.75 | d(O2,H3): 3.05 | d(O2,N2): 2.97 | a(C5, CA1, O1): 161.80 | a(CA1, O1, O2): 109.94 | a(CA1, O4, H2): 130.34 | a(O1, CA1, O4): 59.87 | a(O1, O2, H4): 88.73 | a(O1, O2, H3): 137.81 | a(O1, O2, N2): 142.32 | a(O2, N2, C2): 120.15 | a(O2, N2, CA2): 152.82 | Pharmacophore torsion angle a(C5, CA1, O1, H4): 37.14 | Pharmacophore torsion angle a(H4, O1, O2, H3): −120.02 | Pharmacophore torsion angle a(H4, O1, O2, N2): −112.40 | Pharmacophore torsion angle a(O1, H4, O2, CA1): −55.96 | Pharmacophore torsion angle a(O1, O2, N2, C2): 136.21 | Pharmacophore torsion angle a(O1, O2, N2, CA2): 138.54

C[C@H](NC(=O)[C@H]1C[C@@H](c2ccccc2)CCN1)C(=O)NCc1cc(Cl)ccc1O.Cl [1078_12]
Ligand-pharmacophore element distance, pharmacophore element C2: 0.4 | Ligand-pharmacophore element distance, pharmacophore element C3: 0 | Ligand-pharmacophore element distance, pharmacophore element C4: 0 | Ligand-pharmacophore element distance, pharmacophore element C5: 0.52 | Ligand-pharmacophore element distance, pharmacophore element C6: 0 | Ligand-pharmacophore element distance, pharmacophore element C7: 0 | Ligand-pharmacophore element distance, pharmacophore element CA1: 1.43 | Ligand-pharmacophore element distance, pharmacophore element CA2: 0.64 | Ligand-pharmacophore element distance, pharmacophore element CA3: 0 | Ligand-pharmacophore element distance, pharmacophore element CA4: 0 | Ligand-pharmacophore element distance, pharmacophore element CA5: 0 | Ligand-pharmacophore element distance, pharmacophore element CA6: 0 | d(CA1,C5): 3.12 | d(CA1,O1): 4.34 | d(CA1,O2): 4.51 | d(CA1,O4): 2.74 | d(H4,O1): 3.08 | d(H4,O2): 3.40 | d(O1,O2): 2.81 | d(O4,H2): 0.98 | d(N2,C2): 1.45 | d(N2,CA2): 5.74 | d(O2,H3): 2.85 | d(O2,N2): 2.84 | a(C5, CA1, O1): 161.92 | a(CA1, O1, O2): 111.74 | a(CA1, O4, H2): 127.55 | a(O1, CA1, O4): 67.44 | a(O1, O2, H4): 128.90 | a(O1, O2, H3): 150.80 | a(O1, O2, N2): 154.56 | a(O2, N2, C2): 130.32 | a(O2, N2, CA2): 157.60 | Pharmacophore torsion angle a(C5, CA1, O1, H4): 11.21 | Pharmacophore torsion angle a(H4, O1, O2, H3): −120.32 | Pharmacophore torsion angle a(H4, O1, O2, N2): −108.09 | Pharmacophore torsion angle a(O1, H4, O2, CA1): −75.33 | Pharmacophore torsion angle a(O1, O2, N2, C2): 114.97 | Pharmacophore torsion angle a(O1, O2, N2, CA2): 110.39
